Experimental data reported in the PolyMetriX glass transition set.
± gives the standard deviation of the reports.

`*c1ccc2c(c1)C(=O)N(c1ccc(Oc3ccc(C(c4ccc(Oc5ccc(N6C(=O)c7ccc(C(*)(C(F)(F)F)C(F)(F)F)cc7C6=O)cc5)cc4)(C(F)(F)F)C(F)(F)F)cc3)cc1)C2=O` (repeat unit) showed a glass transition temperature of 247.00 ± 16 °C.
`*c1ccc(Oc2ccc(-c3ccc(Oc4ccc(N5C(=O)c6ccc(Oc7ccccc7Oc7ccc8c(c7)C(=O)N(*)C8=O)cc6C5=O)cc4C(F)(F)F)cc3)cc2)c(C(F)(F)F)c1` (repeat unit) gave a glass transition temperature of 208.00 °C.
Work on `*CCCCCCCCCCCCCCCCOC(=O)CC/C=C/CCC(=O)O*` (repeat unit) yielded a glass transition temperature of -18.00 °C.
Work on `*CC(*)(C)C(=O)OCC(F)(F)C(F)F` (repeat unit) [Poly(2,2,3,3-tetrafluoropropyl methacrylate)] yielded a glass transition temperature of 75.42 ± 6.5 °C.
In the case of `*CCC(CC)CC(C)CNC(=O)c1ccc(C(=O)N*)cc1` (repeat unit), the glass transition temperature is reported as 139.00 °C.
For `*c1cc(N2C(=O)c3ccc(P(=O)(c4ccccc4)c4ccc5c(c4)C(=O)N(*)C5=O)cc3C2=O)cc(C(F)(F)F)c1` (repeat unit), the glass transition temperature was 317.00 °C.
`*Nc1ccc(-c2ccc(Nc3ccc4c(c3)c3cc(*)ccc3n4CC(CC)CCCC)cc2)cc1` (repeat unit) showed a glass transition temperature of 231.00 °C.
`*CCC[Si](*)(C)c1ccccc1` (repeat unit) showed a glass transition temperature of -1.50 °C.
Molecule `*C(=O)c1ccc2c(c1)C(=O)N(c1ccc(Oc3cc4ccccc4cc3Oc3ccc(N4C(=O)c5ccc(*)cc5C4=O)cc3)cc1)C2=O` (repeat unit) has a glass transition temperature of 246.00 °C.
`*CCOCCOCCOC(=O)NCCCCCCNC(=O)O*` (repeat unit) gave a glass transition temperature of -6.50 °C.
In the case of `*C(=O)Nc1cccc(NC(=O)c2ccc3c(c2)C(=O)N(c2cccc(P(=O)(c4ccccc4)c4cccc(N5C(=O)c6ccc(*)cc6C5=O)c4)c2)C3=O)n1` (repeat unit), the glass transition temperature is reported as 156.00 °C.
Work on `*Oc1ccc(CC(NC(=O)CCc2ccc(OC(=O)CCCCC(*)=O)cc2)C(=O)OCCCCCCCC)cc1` (repeat unit) yielded a glass transition temperature of 28.00 °C.
In the case of `*C(=O)Nc1ccc(Oc2ccc(-c3ccc(Oc4ccc(NC(=O)c5ccc6c(c5)C(=O)N(c5ccc(C)c(N7C(=O)c8ccc(*)cc8C7=O)c5)C6=O)cc4)cc3)cc2)cc1` (repeat unit), the glass transition temperature is reported as 299.00 °C.
Work on `*CCOC(=O)Nc1ccc(CCCCc2ccc(NC(=O)O*)cc2)cc1` (repeat unit) yielded a glass transition temperature of 105.70 °C.
`*c1ccc(-c2nc3cc(S(=O)(=O)c4ccc5nc(-c6ccccc6)c(*)nc5c4)ccc3nc2-c2ccccc2)cc1` (repeat unit) showed a glass transition temperature of 345.00 °C.
Molecule `*Oc1cccc(C(F)(F)C(F)(F)C(F)(F)c2cccc(OC(=O)c3cccc(C(F)(F)C(F)(F)C(F)(F)c4cccc(C(*)=O)c4)c3)c2)c1` (repeat unit) has a glass transition temperature of 74.00 °C.
For `*c1ccc(-c2ccc(-n3c(-c4ccc(Oc5ccc(C(=O)c6ccc(Oc7ccc(-c8nc9ccccc9n8*)cc7)cc6)cc5)cc4)nc4ccccc43)cc2)cc1` (repeat unit), the glass transition temperature was 268.00 °C.
Work on `*O[Si](*)(C)CCCOCCOCCOc1ccc(COc2ccc3cc(C#N)ccc3c2)cc1` (repeat unit) yielded a glass transition temperature of 30.00 °C.
Work on `*CCCC(C)(C)CCCn1c(=O)c2cc3c(=O)n(*)c(=O)c3cc2c1=O` (repeat unit) yielded a glass transition temperature of 135.00 °C.
With `*c1ccc(Sc2ccc(Sc3ccc(Sc4ccc(N5C(=O)c6ccc(Sc7ccc(Sc8ccc(Sc9ccc%10c(c9)C(=O)N(*)C%10=O)cc8)cc7)cc6C5=O)cc4)cc3)cc2)cc1` (repeat unit) the glass transition temperature was 176.5 °C.
`*c1ccc(Oc2cccc(Oc3ccc(N4C(=O)c5cccc(Oc6ccc(-c7ccc(Oc8cccc9c8C(=O)N(*)C9=O)cc7)cc6)c5C4=O)cc3)c2)cc1` (repeat unit) gave a glass transition temperature of 224.00 °C.
With `*OC(c1ccco1)C(OC(=O)Nc1ccc(Cc2ccc(NC(*)=O)cc2)cc1)c1ccco1` (repeat unit) the glass transition temperature was 74.00 °C.
Work on `*c1cc(Oc2c(C)cc(-c3cc(C)c(Oc4cc(N5C(=O)c6ccc(Oc7ccc8c(c7)C(=O)N(*)C8=O)cc6C5=O)cc(C(F)(F)F)c4)c(C)c3)cc2C)cc(C(F)(F)F)c1` (repeat unit) yielded a glass transition temperature of 252.20 °C.
In the case of `*c1ccc(C(C)(C)c2ccc(C(C)(C)c3ccc(N4C(=O)c5ccc(Oc6ccc7cc(Oc8ccc9c(c8)C(=O)N(*)C9=O)ccc7c6)cc5C4=O)cc3)cc2)cc1` (repeat unit), the glass transition temperature is reported as 246.00 °C.
In the case of `*Nc1ccc(NC(=O)c2cc(C(*)=O)c(C(=O)O)cc2C(=O)O)cc1` (repeat unit), the glass transition temperature is reported as 283.40 °C.
`*Cc1ccc(CO*)cc1` (repeat unit) showed a glass transition temperature of 217.00 °C.
With `*CC(*)(C)C(=O)OCCCCCCCCOc1ccc2cc(C(=O)Oc3ccccc3)ccc2c1` (repeat unit) the glass transition temperature was 34.00 °C.
`*Nc1ccc(C2(c3ccc(NC(=O)c4cc(NC(=O)C56CC7CC(CC(C7)C5)C6)cc(C(*)=O)c4)cc3)c3ccccc3-c3ccccc32)cc1` (repeat unit) showed a glass transition temperature of 370.00 °C.
Work on `*Oc1ccc(C(c2ccc(OC(=O)c3ccc(C(c4ccc(C(*)=O)cc4)(C(F)(F)F)C(F)(F)F)cc3)cc2)(C(F)(F)F)C(F)(F)F)cc1` (repeat unit) yielded a glass transition temperature of 135.00 °C.
`*CCCOC(=O)c1cccc(C(=O)O*)c1` (repeat unit) showed a glass transition temperature of 36.00 °C.
Work on `*CC#CCOC(=O)CCCCCCC(=O)O*` (repeat unit) yielded a glass transition temperature of -38.00 °C.
`*C(=O)Nc1ccc(C2(c3ccc(NC(=O)c4ccc5c(c4)C(=O)N(c4ccc(Oc6cccc(Oc7ccc(N8C(=O)c9ccc(*)cc9C8=O)cc7)c6)cc4)C5=O)cc3)c3ccccc3-c3ccccc32)cc1` (repeat unit) gave a glass transition temperature of 278.00 °C.
Molecule `*c1ccc(Oc2ccc(C(=O)c3ccc(Oc4ccc(-c5c6c(c(*)c7ccccc57)C(=O)N(c5ccccc5)C6=O)cc4)cc3)cc2)cc1` (repeat unit) has a glass transition temperature of 273.50 °C.
With `*CC(*)(C)C(=O)OCc1ccc2c(c1)c1ccccc1n2CCCCCCCCCCCCCC` (repeat unit) the glass transition temperature was 26.00 °C.
Work on `*CC(CCCCCCCCCC)O*` (repeat unit) yielded a glass transition temperature of -41.00 °C.
In the case of `*OC(=O)c1ccc(/N=N/c2ccc(C(=O)OC3COC4C(*)COC34)cc2)cc1` (repeat unit), the glass transition temperature is reported as 98.00 °C.
`*CCC(Cl)C(*)Cl` (repeat unit) gave a glass transition temperature of 70.00 °C.
Molecule `*Oc1ccc(NC(=O)c2ccc(C(=O)Nc3ccc(Oc4ccc(C5(c6ccc(*)cc6)CC6CCC5C6)cc4)cc3)cc2)cc1` (repeat unit) has a glass transition temperature of 281.00 °C.
For `*C1C2CC(C1*)C([Si](C)(C)C)C2` (repeat unit), the glass transition temperature was 303.00 °C.
`*CCCCOc1ccc(/C=C2\CC/C(=C\c3ccc(OCCCCOP(=O)(O*)OC)c(OC)c3)C2=O)cc1OC` (repeat unit) gave a glass transition temperature of 75.00 °C.
For `*Nc1ccc(C(C)(C)c2ccc(C(C)(C)c3ccc(Nc4ccc(C(O)(c5ccccc5)c5ccc(C(O)(c6ccccc6)c6ccc(*)cc6)cc5)cc4)cc3)cc2)cc1` (repeat unit), the glass transition temperature was 177.00 °C.
`*CCC1CC(*)C2C3CC(CC)C(C3)C12` (repeat unit) gave a glass transition temperature of 138.00 °C.
Work on `*CC(*)c1ccc(C(O)CCN2CCCCC2)cc1` (repeat unit) yielded a glass transition temperature of 54.00 °C.
For `*CC(O)CN(C)S(=O)(=O)c1cccc(S(=O)(=O)N(C)CC(O)COc2ccc(S(=O)(=O)c3ccc(O*)cc3)cc2)c1` (repeat unit), the glass transition temperature was 100.00 °C.
For `*c1ccc(Oc2ccc(-n3nc(-c4ccccc4)cc3-c3ccc(-c4cc(-c5ccccc5)nn4*)cc3)cc2)cc1` (repeat unit), the glass transition temperature was 260.00 °C.
Molecule `*c1ccc(OC(=O)c2cccc(C(=O)Oc3ccc(C4(*)OC(=O)c5ccccc54)cc3C)c2)c(C)c1` (repeat unit) has a glass transition temperature of 273.00 °C.
`*Oc1cccc(NC(=O)c2ccc(C(=O)Nc3ccc(Oc4ccc(C(=O)c5ccc(*)cc5)cc4)cc3)cc2)c1` (repeat unit) showed a glass transition temperature of 126.00 °C.
`*CC(*)(C)C(=O)OCCOc1ccc(/N=N/c2ccc(OC)cc2)cc1` (repeat unit) gave a glass transition temperature of 109.00 °C.
Work on `*OC(COC(=O)c1ccc(C(*)=O)cc1)COc1ccc(/N=N/c2ccc(C#N)cc2)cc1` (repeat unit) yielded a glass transition temperature of 122.00 °C.
In the case of `*Cc1cc(C)c(CNC(=O)c2ccc(C(=O)N*)cc2)cc1C` (repeat unit), the glass transition temperature is reported as 225.00 °C.
Molecule `*CC(CC)(CC)COC(=O)Nc1ccc(C)c(NC(=O)O*)c1` (repeat unit) has a glass transition temperature of -60.00 °C.
Work on `*/C=[CH]/[Ge](/[CH]=C/[Si](*)(c1ccccc1)c1ccccc1)([c]1ccccc1)[c]1ccccc1` (repeat unit) yielded a glass transition temperature of 28.00 °C.
For `*C(F)(F)C(*)(F)OC(F)C(F)F` (repeat unit), the glass transition temperature was 35.00 °C.
Work on `*c1ccc(Oc2ccc(C(C)(C)c3ccc(Oc4ccc(N5C(=O)C6CCC7C(=O)N(*)C(=O)C7C6C5=O)cc4)cc3)cc2)cc1` (repeat unit) yielded a glass transition temperature of 263.50 °C.
With `*C(=O)Nc1ccc(Cc2ccc(NC(=O)c3ccc4c(c3)C(=O)N(c3ccc(Oc5ccc(N6C(=O)c7ccc(*)cc7C6=O)cc5)cc3)C4=O)cc2)cc1` (repeat unit) the glass transition temperature was 270.00 °C.
In the case of `*c1ccc(CCc2ccc(N3C(=O)C(=O)N(*)C3=O)cc2)cc1` (repeat unit), the glass transition temperature is reported as 196.00 °C.
`*Oc1ccc(/C(=C/c2cc(OC)c(/C=C(/c3ccc(*)cc3)c3ccc(C(F)(F)F)cc3)cc2OC)c2ccc(C(F)(F)F)cc2)cc1` (repeat unit) gave a glass transition temperature of 194.00 °C.
`*Cc1ccc(C(C)c2ccc(CN3C(=O)c4ccc(Oc5ccc6c(c5)C(=O)N(*)C6=O)cc4C3=O)o2)o1` (repeat unit) showed a glass transition temperature of 129.00 °C.
`*CC(*)OC(=O)CCCC1CCCCC1` (repeat unit) gave a glass transition temperature of -10.00 °C.
Work on `*CCOCCOC(=O)C(=O)O*` (repeat unit) yielded a glass transition temperature of -28.00 °C.
With `*CC(*)C(=O)OCCCCOc1ccc(/N=N/c2ccc([N+](=O)[O-])cc2)cc1` (repeat unit) the glass transition temperature was 36.70 °C.
With `*CCCCCCCCCN1C(=O)c2ccc(-c3ccc(-c4ccc5c(c4)C(=O)N(*)C5=O)cc3)cc2C1=O` (repeat unit) the glass transition temperature was 104.00 °C.
`*C(=O)c1ccc2c(c1)C(=O)N(c1cccc(N3C(=O)c4ccc(*)cc4C3=O)c1)C2=O` (repeat unit) showed a glass transition temperature of 300.00 ± 9 °C.
`*CC(O)COc1ccc(C2CCCC(CC)(c3ccc(O*)cc3)C2)cc1` (repeat unit) gave a glass transition temperature of 140.00 °C.
